Calls of active or inactive are those of the source.
What was measured:
[1] = YAP1 pathway inhibition via CTGF transcript levels, dose response, cell-based, DLD1 colon cancer, RT-qPCR, cherry-pick (AID 1053122); assay type: functional; settings: Cancer cell lines
[2] = target: 5-hydroxytryptamine receptor 2A (Mus musculus, UniProt P35363); assay type: functional, cell-based;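 note: CHO-K1 cells with tagged receptor and beta-arrestin; agonist potency measured as compound-induced activation of the receptor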
5-hydroxytryptamine receptor 2A, sequence (P35363 whole entry): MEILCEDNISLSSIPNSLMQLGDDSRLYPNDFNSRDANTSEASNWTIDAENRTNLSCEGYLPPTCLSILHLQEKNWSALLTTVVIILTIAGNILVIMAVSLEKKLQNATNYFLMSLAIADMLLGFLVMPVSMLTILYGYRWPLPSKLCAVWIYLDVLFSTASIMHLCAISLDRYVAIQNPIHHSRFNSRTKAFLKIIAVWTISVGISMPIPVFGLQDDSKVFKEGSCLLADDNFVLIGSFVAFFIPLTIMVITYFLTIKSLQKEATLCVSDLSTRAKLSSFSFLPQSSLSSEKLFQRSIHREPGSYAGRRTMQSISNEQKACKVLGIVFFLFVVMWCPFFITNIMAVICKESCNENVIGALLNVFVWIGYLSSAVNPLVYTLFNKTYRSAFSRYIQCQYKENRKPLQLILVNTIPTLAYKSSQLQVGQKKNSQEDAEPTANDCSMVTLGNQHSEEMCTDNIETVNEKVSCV

Mu-type opioid receptor = Mu-type opioid receptor (Homo sapiens, UniProt P35372); assay type: functional, cell-based;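 note: U2OS cells with beta-arrestin recruitment to OPRM1 by beta-gal complementation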
Mu-type opioid receptor, sequence (P35372 whole entry, the tested form may be a part): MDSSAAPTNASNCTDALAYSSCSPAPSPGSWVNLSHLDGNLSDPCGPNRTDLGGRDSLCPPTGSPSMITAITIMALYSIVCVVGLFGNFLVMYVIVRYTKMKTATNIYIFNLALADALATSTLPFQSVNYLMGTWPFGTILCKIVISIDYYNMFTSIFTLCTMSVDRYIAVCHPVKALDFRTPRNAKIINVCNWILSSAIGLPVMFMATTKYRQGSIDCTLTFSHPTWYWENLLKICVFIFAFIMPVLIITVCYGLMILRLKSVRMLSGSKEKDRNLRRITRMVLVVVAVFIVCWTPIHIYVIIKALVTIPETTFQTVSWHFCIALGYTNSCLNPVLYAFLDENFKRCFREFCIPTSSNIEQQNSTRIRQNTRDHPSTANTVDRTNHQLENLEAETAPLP

[3] = target: Disintegrin and metalloproteinase domain-containing protein 17 (Homo sapiens, UniProt P78536); experiment: exosite inhibitors of ADAM17, dose response, biochemical (AID 743260)
[4] = ADAM10 protease inhibitors, dose response, selectivity assay for ADAM17 exosite inhibitor project, biochemical, FRET peptide substrate, recombinant human ADAM10 (AID 743259);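 note: ADAM10 enzyme cleaving a FRET peptide substrate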
[5] = system: Streptococcus sp. 'group A'; experiment: growth inhibition of control SK(-) GAS strain, dose response, counter-screen for streptokinase expression inhibitor project, luminescence, kanamycin, BacTiterGlo, confirmation (AID 1900); assay type: functional, organism-based
Genome polyprotein = Genome polyprotein (dengue virus type 2, UniProt P29990); experiment: Dengue-2 NS5 methyltransferase inhibitors, primary screen, biochemical, confirmation dose response (AID 588689); assay type: functional
Genome polyprotein, sequence (P29990 2492-3391 limits assumed): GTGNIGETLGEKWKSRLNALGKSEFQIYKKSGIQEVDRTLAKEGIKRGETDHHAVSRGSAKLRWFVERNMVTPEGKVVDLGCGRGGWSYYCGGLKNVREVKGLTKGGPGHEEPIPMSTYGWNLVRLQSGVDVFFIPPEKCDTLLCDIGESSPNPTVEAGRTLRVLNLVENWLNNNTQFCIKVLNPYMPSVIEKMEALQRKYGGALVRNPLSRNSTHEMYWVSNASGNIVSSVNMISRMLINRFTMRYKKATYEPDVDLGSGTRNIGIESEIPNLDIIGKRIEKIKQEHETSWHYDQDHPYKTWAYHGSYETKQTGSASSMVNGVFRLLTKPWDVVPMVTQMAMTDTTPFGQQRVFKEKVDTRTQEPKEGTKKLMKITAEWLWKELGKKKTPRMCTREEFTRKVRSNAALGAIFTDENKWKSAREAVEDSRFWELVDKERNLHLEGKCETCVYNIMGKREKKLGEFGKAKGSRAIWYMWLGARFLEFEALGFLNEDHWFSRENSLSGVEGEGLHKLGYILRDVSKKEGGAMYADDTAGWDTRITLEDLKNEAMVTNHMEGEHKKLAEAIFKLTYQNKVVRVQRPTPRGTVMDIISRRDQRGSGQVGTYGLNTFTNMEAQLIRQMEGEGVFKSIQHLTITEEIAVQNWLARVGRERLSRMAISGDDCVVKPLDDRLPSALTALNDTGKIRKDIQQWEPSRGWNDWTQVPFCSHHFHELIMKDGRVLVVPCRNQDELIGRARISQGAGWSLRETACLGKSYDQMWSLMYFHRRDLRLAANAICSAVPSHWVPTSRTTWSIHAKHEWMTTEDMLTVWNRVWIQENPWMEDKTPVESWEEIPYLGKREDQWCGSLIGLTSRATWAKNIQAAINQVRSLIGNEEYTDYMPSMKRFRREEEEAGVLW

Streptokinase A = target: T1, Streptokinase A (Streptococcus pyogenes serotype M1, UniProt P10520); experiment: S. pyogenes streptokinase expression inhibitors, potency, dose response, plasminogen activation absorbance, OD405 (AID 1914); assay type: functional, Streptococcus pyogenes M1 GAS;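 note: secreted streptokinase activity via plasminogen activation per viability signal from cell pellet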
T1 sequence (P10520 whole entry): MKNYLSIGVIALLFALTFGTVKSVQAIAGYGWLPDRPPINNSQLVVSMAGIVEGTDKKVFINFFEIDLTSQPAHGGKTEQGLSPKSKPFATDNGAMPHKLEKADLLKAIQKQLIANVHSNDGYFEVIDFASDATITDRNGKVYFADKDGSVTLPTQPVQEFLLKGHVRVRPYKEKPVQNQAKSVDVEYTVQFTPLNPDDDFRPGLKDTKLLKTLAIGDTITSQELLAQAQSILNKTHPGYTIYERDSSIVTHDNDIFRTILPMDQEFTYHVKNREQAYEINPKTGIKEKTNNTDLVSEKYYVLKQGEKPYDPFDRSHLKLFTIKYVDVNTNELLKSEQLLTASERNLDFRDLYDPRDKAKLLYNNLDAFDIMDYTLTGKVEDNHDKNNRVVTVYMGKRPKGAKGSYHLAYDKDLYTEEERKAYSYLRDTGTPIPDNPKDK

Streptococcus = experiment: Group A Streptococcus viability loss, dose response, counter-screen for streptokinase expression inhibitor project, luminescence, BacTiterGlo (AID 1915); assay type: functional, organism-based;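 note: potency for reduction of bacterial viability or growth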
[6] = target: Induced myeloid leukemia cell differentiation protein Mcl-1 (Homo sapiens, UniProt Q07820); assay type: functional
Induced myeloid leukemia cell differentiation protein Mcl-1, sequence (Q07820 whole entry): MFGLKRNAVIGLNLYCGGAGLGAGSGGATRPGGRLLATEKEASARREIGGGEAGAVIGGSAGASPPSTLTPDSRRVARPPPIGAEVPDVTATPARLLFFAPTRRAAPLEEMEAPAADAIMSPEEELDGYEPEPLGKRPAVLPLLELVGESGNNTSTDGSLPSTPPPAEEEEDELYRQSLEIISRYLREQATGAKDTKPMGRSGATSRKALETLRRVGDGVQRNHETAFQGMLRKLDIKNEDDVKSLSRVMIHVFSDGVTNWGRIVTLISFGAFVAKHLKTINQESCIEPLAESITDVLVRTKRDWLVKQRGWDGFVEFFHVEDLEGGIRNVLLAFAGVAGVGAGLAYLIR

[7] = target: Long-chain-fatty-acid--AMP ligase FadD28 (Mycobacterium tuberculosis, UniProt P9WQ59); experiment: Fluorescence polarization aasay to screen for inhibitors that compete for the binding of FadD28 to a bisubstrate Measured in Biochemical System Using Plate Reader - 2147-01_Inhibitor_Dose_CherryPick_Activity.; assay type: functional, Mycobacterium tuberculosis H37Rv
[8] = Mycobacterium tuberculosis BioA enzyme inhibitor Measured in Biochemical System Using Plate Reader - 2163-02_Inhibitor_Dose_DryPowder_Activity.
[9] = target: T2, Histone-lysine N-methyltransferase NSD2 (Homo sapiens, UniProt O96028); assay type: biochemical
T2 sequence (O96028 whole entry): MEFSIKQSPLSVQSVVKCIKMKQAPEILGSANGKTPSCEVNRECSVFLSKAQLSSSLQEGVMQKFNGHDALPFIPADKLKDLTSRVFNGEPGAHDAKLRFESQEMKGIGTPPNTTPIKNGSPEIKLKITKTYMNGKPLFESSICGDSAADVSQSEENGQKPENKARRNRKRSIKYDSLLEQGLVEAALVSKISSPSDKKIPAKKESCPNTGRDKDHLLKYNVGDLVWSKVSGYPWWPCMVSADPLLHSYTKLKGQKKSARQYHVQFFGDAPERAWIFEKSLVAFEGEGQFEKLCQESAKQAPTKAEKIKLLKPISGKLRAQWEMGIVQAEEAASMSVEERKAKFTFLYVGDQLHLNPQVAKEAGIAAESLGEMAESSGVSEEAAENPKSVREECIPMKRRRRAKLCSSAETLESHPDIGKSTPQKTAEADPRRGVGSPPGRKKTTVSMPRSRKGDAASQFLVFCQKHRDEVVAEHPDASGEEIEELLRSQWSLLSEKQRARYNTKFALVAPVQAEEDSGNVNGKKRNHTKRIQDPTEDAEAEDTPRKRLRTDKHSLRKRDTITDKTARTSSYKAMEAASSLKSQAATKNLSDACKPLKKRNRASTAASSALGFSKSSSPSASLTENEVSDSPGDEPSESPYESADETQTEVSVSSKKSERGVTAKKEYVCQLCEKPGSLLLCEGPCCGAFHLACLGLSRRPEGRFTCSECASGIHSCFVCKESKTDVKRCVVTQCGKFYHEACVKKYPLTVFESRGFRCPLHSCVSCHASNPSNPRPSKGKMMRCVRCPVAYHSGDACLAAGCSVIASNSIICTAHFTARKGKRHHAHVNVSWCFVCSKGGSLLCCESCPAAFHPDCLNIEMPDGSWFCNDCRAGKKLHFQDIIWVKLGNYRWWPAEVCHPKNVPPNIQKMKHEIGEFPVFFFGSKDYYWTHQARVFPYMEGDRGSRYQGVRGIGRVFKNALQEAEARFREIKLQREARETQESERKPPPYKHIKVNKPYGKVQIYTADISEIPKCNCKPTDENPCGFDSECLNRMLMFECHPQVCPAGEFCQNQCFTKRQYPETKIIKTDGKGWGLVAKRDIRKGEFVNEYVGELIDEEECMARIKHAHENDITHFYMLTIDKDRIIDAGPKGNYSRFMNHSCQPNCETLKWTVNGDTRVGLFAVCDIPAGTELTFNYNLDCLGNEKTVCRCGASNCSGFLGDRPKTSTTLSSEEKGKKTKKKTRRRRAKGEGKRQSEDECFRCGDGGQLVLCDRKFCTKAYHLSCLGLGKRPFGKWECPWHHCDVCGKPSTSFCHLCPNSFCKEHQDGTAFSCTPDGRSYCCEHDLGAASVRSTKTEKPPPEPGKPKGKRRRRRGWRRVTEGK

Vero = Vero cell cytotoxicity, cytotoxicity control for flavivirus capping enzyme inhibitors (AID 588742); assay type: functional; settings: Chlorocebus sabaeus
[10] = target: Tyrosyl-DNA phosphodiesterase 2 (Homo sapiens, UniProt O95551); experiment: human TDP2 enzyme inhibitors, dose response, biochemical, epi absorbance, IC50 (AID 743297)
Tyrosyl-DNA phosphodiesterase 2, sequence (O95551 whole entry): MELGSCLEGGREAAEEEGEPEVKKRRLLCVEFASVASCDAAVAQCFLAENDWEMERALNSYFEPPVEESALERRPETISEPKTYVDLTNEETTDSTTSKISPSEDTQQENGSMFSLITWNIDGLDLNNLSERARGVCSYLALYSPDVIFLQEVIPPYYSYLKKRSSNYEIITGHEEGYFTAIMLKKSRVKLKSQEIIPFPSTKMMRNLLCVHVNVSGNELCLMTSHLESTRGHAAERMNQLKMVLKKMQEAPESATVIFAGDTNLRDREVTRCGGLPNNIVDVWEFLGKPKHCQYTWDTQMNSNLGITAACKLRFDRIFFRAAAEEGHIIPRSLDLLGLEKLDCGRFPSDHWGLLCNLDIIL

[11] = target: Endoplasmic reticulum aminopeptidase 1 (Homo sapiens, UniProt Q9NZ08); experiment: ERAP1 aminopeptidase inhibitors, dose response, biochemical, cherry-pick, set 2, plate reader (AID 743314)
Endoplasmic reticulum aminopeptidase 1, sequence (Q9NZ08 whole entry): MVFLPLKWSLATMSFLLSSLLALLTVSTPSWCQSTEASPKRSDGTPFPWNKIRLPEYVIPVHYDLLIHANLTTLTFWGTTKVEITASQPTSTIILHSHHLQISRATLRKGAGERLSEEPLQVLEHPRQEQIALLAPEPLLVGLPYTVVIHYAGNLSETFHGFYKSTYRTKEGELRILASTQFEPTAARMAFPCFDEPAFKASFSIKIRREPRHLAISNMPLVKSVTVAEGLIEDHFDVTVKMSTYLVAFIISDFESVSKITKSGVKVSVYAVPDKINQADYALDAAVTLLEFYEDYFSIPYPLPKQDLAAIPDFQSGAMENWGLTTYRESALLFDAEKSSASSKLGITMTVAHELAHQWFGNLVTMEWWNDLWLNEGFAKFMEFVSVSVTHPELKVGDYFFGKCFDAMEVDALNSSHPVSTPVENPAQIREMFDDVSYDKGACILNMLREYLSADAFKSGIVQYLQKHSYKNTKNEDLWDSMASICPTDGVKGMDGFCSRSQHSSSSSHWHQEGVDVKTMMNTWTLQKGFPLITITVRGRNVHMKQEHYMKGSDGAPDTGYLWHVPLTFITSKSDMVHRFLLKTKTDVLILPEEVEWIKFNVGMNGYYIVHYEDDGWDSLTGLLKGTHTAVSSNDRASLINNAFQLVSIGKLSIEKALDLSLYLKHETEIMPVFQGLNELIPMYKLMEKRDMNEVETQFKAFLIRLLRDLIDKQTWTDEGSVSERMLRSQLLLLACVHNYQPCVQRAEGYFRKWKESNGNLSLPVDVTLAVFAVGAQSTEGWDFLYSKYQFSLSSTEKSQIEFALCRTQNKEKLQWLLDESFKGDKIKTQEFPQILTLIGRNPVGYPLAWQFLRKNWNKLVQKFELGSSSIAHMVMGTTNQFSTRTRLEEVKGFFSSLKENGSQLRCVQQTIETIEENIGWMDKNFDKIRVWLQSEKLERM

Protein Wnt-3a = Protein Wnt-3a (Mus musculus, UniProt P27467); experiment: Wnt3a-driven reporter signaling inhibition, dose response, selectivity assay for Gli-SUFU antagonist project, Wnt-LIGHT cells, luminescence (AID 651570); assay type: functional; settings: read-out: IC50_Mean;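 note: Wnt-LIGHT reporter cells stimulated with conditioned medium from Wnt3a-producing cells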
Protein Wnt-3a, sequence (P27467 whole entry): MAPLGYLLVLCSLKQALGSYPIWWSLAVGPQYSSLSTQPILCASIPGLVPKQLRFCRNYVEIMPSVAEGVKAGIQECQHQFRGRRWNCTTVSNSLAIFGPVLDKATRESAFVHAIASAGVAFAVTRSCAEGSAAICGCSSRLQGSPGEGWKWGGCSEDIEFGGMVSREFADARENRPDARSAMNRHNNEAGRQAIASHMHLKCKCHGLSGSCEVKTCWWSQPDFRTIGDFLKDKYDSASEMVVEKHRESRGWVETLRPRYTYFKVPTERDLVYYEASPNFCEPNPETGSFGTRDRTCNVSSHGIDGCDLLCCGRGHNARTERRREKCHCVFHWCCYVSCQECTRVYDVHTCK

[12] = Shn3 3'UTR reporter inhibitors, dose response, cell-based, Clone20 osteoblasts, firefly luciferase, cherry-picked (AID 624132); assay type: functional;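 note: firefly luciferase luminescence from reporter carrying the Shn3 3'UTR in osteoblasts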
[13] = control 3'UTR Renilla luciferase suppression, dose response, counter-screen for Shn3 inhibitor project, cell-based, Clone20-Shn3RL, cherry-picked (AID 624133); assay type: functional
[14] = target: Matrix metalloproteinase-14 (Homo sapiens, UniProt P50281); experiment: Dose Response confirmation of uHTS hits for a small molecule inhibitors of MT1-MMP activation in a fluorescence assay set 1.; assay type: functional
[15] = HepG2 cell cytotoxicity, dose response, cytotoxicity control for Shn3 inhibitor project, CellTiter-Glo, cherry-picked (AID 624134); assay type: functional, cell-based
cells = assay type: functional, cell-based
[16] = target: T3, Nuclear receptor subfamily 0 group B member 1 (Homo sapiens, UniProt P51843); assay type: functional, cell-based;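 note: HEK293T cells transfected with SF-1 and DAX-1 plus StAR promoter luciferase reporter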
T3 sequence (P51843 whole entry): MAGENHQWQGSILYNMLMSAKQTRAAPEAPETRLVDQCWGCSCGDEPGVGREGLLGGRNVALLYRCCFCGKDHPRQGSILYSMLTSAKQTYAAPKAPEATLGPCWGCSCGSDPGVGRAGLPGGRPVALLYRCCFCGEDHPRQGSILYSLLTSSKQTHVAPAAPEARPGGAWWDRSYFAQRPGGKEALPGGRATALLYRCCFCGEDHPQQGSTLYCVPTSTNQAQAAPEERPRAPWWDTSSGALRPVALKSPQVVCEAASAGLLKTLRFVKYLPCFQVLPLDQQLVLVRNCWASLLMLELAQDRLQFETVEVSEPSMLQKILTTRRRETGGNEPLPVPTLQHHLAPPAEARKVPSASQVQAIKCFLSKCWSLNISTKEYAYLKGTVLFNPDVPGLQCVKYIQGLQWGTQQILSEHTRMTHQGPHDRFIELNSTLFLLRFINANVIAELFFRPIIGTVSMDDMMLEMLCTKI

[17] = A Cell-Based Confirmatory Screen for Compounds that Inhibit VEEV, TC-83 (8).; assay type: functional
[18] = target: T4, Small ubiquitin-related modifier 1 (Homo sapiens, UniProt P63165); experiment: inhibitors of SUMO1 peptide binding, dose response, biochemical, fluorescence polarization, uHTS hits (AID 624382); assay type: functional; settings: read-out: IC50_Mean
T4 sequence (P63165 whole entry): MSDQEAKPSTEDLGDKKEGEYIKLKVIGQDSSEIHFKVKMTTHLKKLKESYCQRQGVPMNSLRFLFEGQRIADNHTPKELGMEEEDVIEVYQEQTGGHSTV

[19] = target: Small ubiquitin-related modifier 2 (Homo sapiens, UniProt P61956); experiment: inhibitors of SUMO2 protein-protein interaction, dose response, selectivity assay for SUMO1 interaction inhibitor project, biochemical, FRET, human SUMO2, uHTS hits (AID 624384); assay type: functional; settings: read-out: IC50_Mean
Small ubiquitin-related modifier 2, sequence (P61956 whole entry): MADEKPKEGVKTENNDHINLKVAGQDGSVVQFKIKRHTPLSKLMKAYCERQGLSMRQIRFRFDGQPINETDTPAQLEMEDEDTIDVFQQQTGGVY

[20] = target: T4, Small ubiquitin-related modifier 1; experiment: inhibitors of SUMO1 partner interactions, dose response, biochemical, FRET (AID 624383); assay type: functional; settings: read-out: IC50_Mean
Cytochrome P450 1A2 = target: T5, Cytochrome P450 1A2 (Homo sapiens, UniProt P05177);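 note: PubChem cytochrome P450 panel assay, CYP1A2 panel member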
T5 sequence (P05177 whole entry): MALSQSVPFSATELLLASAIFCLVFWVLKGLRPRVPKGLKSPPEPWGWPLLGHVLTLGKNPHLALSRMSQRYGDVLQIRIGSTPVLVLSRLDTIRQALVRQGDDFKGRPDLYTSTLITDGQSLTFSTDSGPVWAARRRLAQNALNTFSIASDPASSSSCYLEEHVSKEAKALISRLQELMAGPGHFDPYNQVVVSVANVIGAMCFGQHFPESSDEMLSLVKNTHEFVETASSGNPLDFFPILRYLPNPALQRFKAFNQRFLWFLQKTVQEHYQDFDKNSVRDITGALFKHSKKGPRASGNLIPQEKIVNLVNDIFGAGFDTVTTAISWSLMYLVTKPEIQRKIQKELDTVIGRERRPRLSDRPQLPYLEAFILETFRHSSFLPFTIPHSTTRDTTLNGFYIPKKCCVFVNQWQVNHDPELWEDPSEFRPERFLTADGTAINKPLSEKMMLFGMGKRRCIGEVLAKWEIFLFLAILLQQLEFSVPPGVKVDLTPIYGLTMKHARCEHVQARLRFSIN

fMet-Leu-Phe receptor = fMet-Leu-Phe receptor (Homo sapiens, UniProt P21462); experiment: FPR ligands, dose response (AID 519); assay type: functional
fMet-Leu-Phe receptor, sequence (P21462 whole entry): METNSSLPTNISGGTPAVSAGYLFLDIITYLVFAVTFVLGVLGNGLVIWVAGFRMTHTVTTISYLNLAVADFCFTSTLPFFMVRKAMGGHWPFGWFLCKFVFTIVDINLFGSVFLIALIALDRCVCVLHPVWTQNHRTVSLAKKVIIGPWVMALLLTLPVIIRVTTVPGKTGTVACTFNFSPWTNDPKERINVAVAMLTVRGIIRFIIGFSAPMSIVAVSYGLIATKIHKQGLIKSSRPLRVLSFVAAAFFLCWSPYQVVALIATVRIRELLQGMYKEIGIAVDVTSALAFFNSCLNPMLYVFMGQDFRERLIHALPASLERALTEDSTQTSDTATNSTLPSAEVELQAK

[21] = target: Acyl-protein thioesterase 2 (Homo sapiens, UniProt O95372); experiment: Late stage assay provider results from the probe development effort to identify selective inhibitors of LYPLA2: fluorescence-based biochemical dose-response assay.
Acyl-protein thioesterase 2, sequence (O95372 whole entry): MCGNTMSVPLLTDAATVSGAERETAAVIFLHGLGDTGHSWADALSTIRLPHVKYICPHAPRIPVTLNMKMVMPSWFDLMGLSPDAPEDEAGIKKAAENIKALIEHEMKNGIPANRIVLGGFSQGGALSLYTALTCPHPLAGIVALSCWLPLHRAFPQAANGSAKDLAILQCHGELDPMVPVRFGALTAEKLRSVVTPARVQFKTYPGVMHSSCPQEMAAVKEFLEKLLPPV

[22] = HeLa cell cytotoxicity, dose response, cytotoxicity control, 24 h, plate reader, dry powder (AID 686928); assay type: functional, cell-based
[23] = LGR2 antagonists, dose response, cell-based, HEK293, CRE-luciferase reporter, cherry pick (AID 743342); assay type: functional

In the case of O=C(c1cccc(F)c1)N1CCCCN2[C@@H](CO)[C@H](c3ccc(C#CC4(O)CCCC4)cc3)[C@@H]2C1, the AC50 [1] is reported as 1.16 µM (active).

For Cc1cccc(C)c1-n1nnnc1C(C1CC1)N1CCN(C/C=C/c2ccccc2)CC1 (configuration not stated), the EC50 [2] was 0.94 µM (active) and the EC50 (Mu-type opioid receptor) was 92.6 µM (inactive).

In the case of Cc1[nH]n(-c2ncc(-c3ccccc3)s2)c(=O)c1C(c1ccc(Br)cc1)C(C#N)C#N (configuration not stated), the IC50 [3] is reported as > 69.5 µM (inactive), the IC50 [4] is reported as 10.6 µM (inactive) and the EC50 [5] is reported as 3.39 µM (active). For the same compound, the IC50 (Genome polyprotein) was 22.3 µM (active), the EC50 (Streptokinase A) was > 150 µM (not active) and the EC50 (Streptococcus) was 5.75 µM (active). For the same compound, the IC50 [6] was 4.67 µM (active) and the AC50 [7] was 35.5 µM (active).

For O=C(Nc1cccc(Cl)c1)N1CCN(c2ccccc2)CC1, the AC50 [8] was 11 µM (active).

With O=C1C=C(Nc2cccnc2)c2ccccc2C1=O the AC50 [9] was 3.7 µM (active), the CC50 (Vero) was 12.1 µM (active) and the IC50 [10] was 4.03 µM (active).

For Cc1cc(=O)oc2c(CN3CCN(CCO)CC3)c(O)ccc12, the AC50 [11] was 9.03 µM (active).

With CNc1ccccc1C(C)(C)c1cc(-c2cccc(Br)c2)no1 the IC50 (Protein Wnt-3a) was 1.8 µM (active), the AC50 [12] was 2 µM (active) and the AC50 [13] was 9.45 µM (active). The IC50 [14] was > 80 µM (inactive) and the AC50 [15] was 44.5 µM (active).

In the case of CN1OC[C@@H]2CN[C@H](c3ccc(-c4cccc(F)c4)cc3)C[C@@H]21, the IC50 (cells) is reported as > 67.5 µM (inactive) and the IC50 [16] is reported as > 67.5 µM (inactive).

With CNCCCN(C)Cc1nc2ccc([N+](=O)[O-])cc2c(=O)n1-c1ccccc1 the IC50 [17] was < 0.5 µM (active).

For N#C/C(=C(\O)Nc1cccc(Cl)c1)c1nc2ccccc2[nH]1, the IC50 [18] was 66 µM (inactive), the IC50 [19] was > 66 µM (inactive) and the IC50 [20] was 52.6 µM (inactive).

For Cc1nn2c(O)c(C#N)c(-c3ccccc3)nc2c1-c1ccccc1, the AC50 (Cytochrome P450 1A2) was 20 µM (inconclusive) and the Ki (fMet-Leu-Phe receptor) was > 66.7 µM (inactive).

In the case of O=C(CN1CCN(C(=O)c2ccco2)CC1)Nc1cc(C(F)(F)F)ccc1Cl, the IC50 [21] is reported as > 10 µM (inactive).

For COc1ccc(-n2cnc(=O)c3ccccc32)cc1Cl, the AC50 [22] was > 160 µM (inactive).

For C[C@H](CO)N1C[C@H](C)[C@H](CN(C)C(=O)Nc2ccc(F)cc2)OCCCC[C@H](C)Oc2ccc(NC(=O)NC3CCCCC3)cc2C1=O, the AC50 [23] was 8.05 µM (active).

Source: ChEMBL document CHEMBL1201862, “PubChem BioAssay data set” (2004)
